Counter-ions that a name gives are not always drawn. Like-named read-outs stand apart in the source and are kept apart here.
Key:
[1] = test system: subjects with impaired control of alcohol drinking; assay: Randomized, double-blind, placebo-controlled dose-response study of nalmefene once daily for 16 weeks; type: in vivo, human; conditions: for Spouse or significant other estimate of frequency of intoxication: At least once a week (number of subjects) / Spouse or significant other estimate of frequency of intoxication: At least once a week (share of subjects) / Spouse or significant other estimate of frequency of intoxication: Every day (number of subjects) / Spouse or significant other estimate of frequency of intoxication: Every day (share of subjects) / Spouse or significant other estimate of frequency of intoxication: Never (number of subjects) / Spouse or significant other estimate of frequency of intoxication: Never (share of subjects) / Spouse or significant other estimate of frequency of intoxication: Once or twice (number of subjects) / Spouse or significant other estimate of frequency of intoxication: Once or twice (share of subjects) / Spouse or significant other estimate of frequency of intoxication: Several times a month (number of subjects) / Spouse or significant other estimate of frequency of intoxication: Several times a month (share of subjects): week 16
Procedure: A randomized, double-blind, placebo-controlled, multicenter, parallel group, dose-response study was conducted comparing placebo and two doses of nalmefene.
The subjects were randomly allocated to receive placebo, 10 mg of nalmefene or 40 mg of nalmefene once daily for 16 weeks. […] During their participation in the study, the subjects were allowed to receive general counseling, but not any psychotherapy or other specific alcoholism treatment, including pharmacotherapy. The study consisted of a screening period (screening and inclusion visits) not exceeding 2 weeks, during which the eligibility of the study subjects were evaluated, and follow-up visits at 1, 3, 6, 9, 12, and 16 weeks after the study medication was started.
The alcohol consumption was assessed with the Time Line Follow Back Method. The primary efficacy variable was the number of Heavy Drinking Days (HDDs) per month (defined as 28 days). A Heavy Drinking Day (HDD) was defined as a day when a male subject consumed 5 or more, or a female subject consumed 4 or more standard drinks. A standard drink contains approximately 12 g of ethanol. Secondary efficacy measures included other drinking variables (number of Drinking Days (DDs), ratio of HDDs to DDs, total consumption, and maximum and average intensity of drinking), Obsessive Compulsive Drinking Scale (OCDS), Alcohol Dependence Scale (ADS) and Drinkers Inventory of Consequences -scale (DrInC), clinical laboratory markers (ALAT, GGT, CDT, and MCV) and collateral reports.
The monthly drinking of the subjects during the 12 weeks prior to the study was determined first to get a baseline. The total alcohol consumption was 25% higher in the FAH+ subject than in the FAH− subject. The number of HDDs and the number of DDs were at a similar level in all subgroups.
The estimate on the subject's frequency of intoxication by subject's spouse or significant other was obtained again at the end of the study. Within the FAH+ subjects, there were more subjects in nalmefene 40 mg groups in categories “never” and “once or twice” than in other groups, and no subjects in the categories “at least once a week” or “every day”.

[2] = test system: HCE cell membranes; assay: In vitro permeation study, HCE cell membranes; conditions: HCE, Papp × water solubility
[3] = In vitro permeation study, HCE cell membranes; conditions: human
[4] = test system: MDCK cell membranes; assay: In vitro permeation study, MDCK cell membranes; type: in vitro ADME, canine
Procedure: (§1) MDCK cells were seeded onto the coated filters at a concentration of about 100,000 cells/cm^2. The culture medium was both in apical and basolateral chambers during the whole culture period, and the culture medium was changed every day. The cells were confluent within three days. […] The incubator environment was the same as described above.
(§2) MDCK cells were used for the permeation study on the 4th day when the TER value was about 250 Ω×cm^2. HBSS (Gibco, Paisley, Skotlanti) /10 mM HEPES was used a buffer solution. The permeation study was performed as described above. All the permeation studies were performed at 37° C. using a horizontal plate mixer (Heidolph Inkubator 1000 and Titramax 1000; Heidolph Electro GmbH & Co., Kelheim, Germany). After the studies, TER was metered. The TER data were not changed during the permeability studies.
(§3) The apparent permeability coefficients were calculated as:
(§4) Papp=J/(C×S), (Equation 1)
(§5) Cs is the water solubility of nalmefene.

[5] = In vitro permeation study, MDCK cell membranes; type: in vitro ADME, canine; conditions: dog
Procedure: as §1, §2, §3, §4, §5

[6] = cited from earlier work
[7] = cited from earlier work; remark: listed apart in the source
[8] = Solubility of nalmefene HCl in water as a function of pH; type: physicochemical; conditions: aqueous buffer, read-out: Matematically determined solubility in water
Procedure: as §5
Because the water solubility of nalmefene was not available in the literature for all the pH values used in the permeation study, the solubilities at pH values 6.5, 7.0, 7.5, and 8.0 were determined matematically from a diagram that described the logarithm of the solubility listed on Table 5 as a function of pH (Cs,pH).

C=C1CC[C@@]2(O)[C@H]3Cc4ccc(O)c5c4[C@@]2(CCN3CC2CC2)[C@H]1O5 [nalmefene]
number of HDDs ([1]; FAH+ subjects, 10 mg once daily): smaller reduction in the early phase of the treatment
total alcohol consumption and number of HDDs ([1]; FAH+ subjects, 10 mg, first month of treatment): positive tendency
Spouse or significant other estimate of frequency of intoxication: At least once a week (number of subjects) ([1]; FAH+ subjects, 10 mg): 4
Spouse or significant other estimate of frequency of intoxication: At least once a week (share of subjects) ([1]; FAH+ subjects, 10 mg): 21%
Spouse or significant other estimate of frequency of intoxication: Every day (number of subjects) ([1]; FAH+ subjects, 10 mg): 0
Spouse or significant other estimate of frequency of intoxication: Every day (share of subjects) ([1]; FAH+ subjects, 10 mg): 0%
Spouse or significant other estimate of frequency of intoxication: Never (number of subjects) ([1]; FAH+ subjects, 10 mg): 1
Spouse or significant other estimate of frequency of intoxication: Never (share of subjects) ([1]; FAH+ subjects, 10 mg): 5%
Spouse or significant other estimate of frequency of intoxication: Once or twice (number of subjects) ([1]; FAH+ subjects, 10 mg): 6
Spouse or significant other estimate of frequency of intoxication: Once or twice (share of subjects) ([1]; FAH+ subjects, 10 mg): 32%
Spouse or significant other estimate of frequency of intoxication: Several times a month (number of subjects) ([1]; FAH+ subjects, 10 mg): 8
Spouse or significant other estimate of frequency of intoxication: Several times a month (share of subjects) ([1]; FAH+ subjects, 10 mg): 42%
reduction of mean number of HDDs versus baseline ([1]; FAH+ subjects, 40 mg daily oral, 4th month of treatment): about 60%
ratio of the number of HDDs to DDs ([1]; FAH+ subjects, 40 mg daily, after treatment, baseline 85%): 43%
number of DDs ([1]; FAH+ subjects, 40 mg once daily): clear reduction
mean number of HDDs per month (28 days) ([1]; FAH+ subjects, 40 mg once daily oral, on treatment, baseline 14.5): 6.0
mean number of drinks (monthly total alcohol consumption) as % of baseline ([1]; FAH+ subjects, 40 mg, 4th month): about 40%
Spouse or significant other estimate of frequency of intoxication: At least once a week (number of subjects) ([1]; FAH+ subjects, 40 mg): 0
Spouse or significant other estimate of frequency of intoxication: At least once a week (share of subjects) ([1]; FAH+ subjects, 40 mg): 0%
Spouse or significant other estimate of frequency of intoxication: Every day (number of subjects) ([1]; FAH+ subjects, 40 mg): 0
Spouse or significant other estimate of frequency of intoxication: Every day (share of subjects) ([1]; FAH+ subjects, 40 mg): 0%
Spouse or significant other estimate of frequency of intoxication: Never (number of subjects) ([1]; FAH+ subjects, 40 mg): 3
Spouse or significant other estimate of frequency of intoxication: Never (share of subjects) ([1]; FAH+ subjects, 40 mg): 14%
Spouse or significant other estimate of frequency of intoxication: Once or twice (number of subjects) ([1]; FAH+ subjects, 40 mg): 9
Spouse or significant other estimate of frequency of intoxication: Once or twice (share of subjects) ([1]; FAH+ subjects, 40 mg): 41%
Spouse or significant other estimate of frequency of intoxication: Several times a month (number of subjects) ([1]; FAH+ subjects, 40 mg): 14
Spouse or significant other estimate of frequency of intoxication: Several times a month (share of subjects) ([1]; FAH+ subjects, 40 mg): 45%
mean number of heavy drinking days reduced by ([1]; FAH+ subjects, daily oral 40 mg, fourth month of treatment (as worded)): 40%
treatment effects on alcohol consumption versus placebo ([1]; FAH- subjects): not distinguishable from placebo
Spouse or significant other estimate of frequency of intoxication: At least once a week (number of subjects) ([1]; FAH- subjects, 10 mg): 1
Spouse or significant other estimate of frequency of intoxication: At least once a week (share of subjects) ([1]; FAH- subjects, 10 mg): 9%
Spouse or significant other estimate of frequency of intoxication: Every day (number of subjects) ([1]; FAH- subjects, 10 mg): 1
Spouse or significant other estimate of frequency of intoxication: Every day (share of subjects) ([1]; FAH- subjects, 10 mg): 9%
Spouse or significant other estimate of frequency of intoxication: Never (number of subjects) ([1]; FAH- subjects, 10 mg): 1
Spouse or significant other estimate of frequency of intoxication: Never (share of subjects) ([1]; FAH- subjects, 10 mg): 9%
Spouse or significant other estimate of frequency of intoxication: Once or twice (number of subjects) ([1]; FAH- subjects, 10 mg): 4
Spouse or significant other estimate of frequency of intoxication: Once or twice (share of subjects) ([1]; FAH- subjects, 10 mg): 36%
Spouse or significant other estimate of frequency of intoxication: Several times a month (number of subjects) ([1]; FAH- subjects, 10 mg): 4
Spouse or significant other estimate of frequency of intoxication: Several times a month (share of subjects) ([1]; FAH- subjects, 10 mg): 36%
Spouse or significant other estimate of frequency of intoxication: At least once a week (number of subjects) ([1]; FAH- subjects, 40 mg): 1
Spouse or significant other estimate of frequency of intoxication: At least once a week (share of subjects) ([1]; FAH- subjects, 40 mg): 8%
Spouse or significant other estimate of frequency of intoxication: Every day (number of subjects) ([1]; FAH- subjects, 40 mg): 1
Spouse or significant other estimate of frequency of intoxication: Every day (share of subjects) ([1]; FAH- subjects, 40 mg): 8%
Spouse or significant other estimate of frequency of intoxication: Never (number of subjects) ([1]; FAH- subjects, 40 mg): 2
Spouse or significant other estimate of frequency of intoxication: Never (share of subjects) ([1]; FAH- subjects, 40 mg): 15%
Spouse or significant other estimate of frequency of intoxication: Once or twice (number of subjects) ([1]; FAH- subjects, 40 mg): 3
Spouse or significant other estimate of frequency of intoxication: Once or twice (share of subjects) ([1]; FAH- subjects, 40 mg): 23%
Spouse or significant other estimate of frequency of intoxication: Several times a month (number of subjects) ([1]; FAH- subjects, 40 mg): 5
Spouse or significant other estimate of frequency of intoxication: Several times a month (share of subjects) ([1]; FAH- subjects, 40 mg): 38%
number of HDDs ([1]; FAH- subjects, nalmefene 10 mg or 40 mg once daily): no clear treatment effects
mean number of drinks (monthly total alcohol consumption) ([1]; FAH- subjects, throughout the study): remained almost unchanged
Maximal administration rate Jmax × 10^−6 ± SD ([2]; pH 6.5, n = 4): 879 ± 32 × 10^−6 mg/(cm^2 s)
Maximal administration rate Jmax × 10^−6 ± SD ([2]; pH 7.0, n = 4): 1072 ± 70 × 10^−6 mg/(cm^2 s)
Maximal administration rate Jmax × 10^−6 ± SD ([2]; pH 7.5, n = 4): 423 ± 19 × 10^−6 mg/(cm^2 s)
Maximal administration rate Jmax × 10^−6 ± SD ([2]; pH 8.0, n = 4): 6.0 ± 0.7 × 10^−6 mg/(cm^2 s)
Papp A→B at 180 min, 500 μM ([3]; pH 6.5): 7.86 ± 0.29 ×10⁻⁶ cm/s
Papp A→B at 180 min, 500 μM ([3]; pH 7): 12.1 ± 0.79 ×10⁻⁶ cm/s
Papp A→B at 180 min, 500 μM ([3]; pH 7.5): 13.3 ± 0.61 ×10⁻⁶ cm/s
Papp A→B at 180 min, 500 μM ([3]; pH 8): 13.6 ± 1.64 ×10⁻⁶ cm/s
Maximal administration rate Jmax × 10^−6 ± SD ([4]; pH 6.5, n = 4, Papp × water solubility): 1273 ± 66 × 10^−6 mg/(cm^2 s)
Maximal administration rate Jmax × 10^−6 ± SD ([4]; pH 7.0, n = 4, Papp × water solubility): 1618 ± 14 × 10^−6 mg/(cm^2 s)
Maximal administration rate Jmax × 10^−6 ± SD ([4]; pH 7.5, n = 4, Papp × water solubility): 723 ± 34 × 10^−6 mg/(cm^2 s)
Maximal administration rate Jmax × 10^−6 ± SD ([4]; pH 8.0, n = 4, Papp × water solubility): 10.6 ± 1.1 × 10^−6 mg/(cm^2 s)
Papp A→B at 180 min, 500 μM ([5]; pH 6.5, n = 4, read-out: Permeability factor (Papp ± SD)): 11.4 ± 0.59 ×10⁻⁶ cm/s
Papp A→B at 180 min, 500 μM ([5]; pH 7.0, n = 4, read-out: Permeability factor (Papp ± SD)): 18.27 ± 0.16 ×10⁻⁶ cm/s
Papp A→B at 180 min, 500 μM ([5]; pH 7.5, n = 4, read-out: Permeability factor (Papp ± SD)): 22.7 ± 1.08 ×10⁻⁶ cm/s
Papp A→B at 180 min, 500 μM ([5]; pH 8.0, n = 4, read-out: Permeability factor (Papp ± SD)): 23.9 ± 2.49 ×10⁻⁶ cm/s
pKa [6]: 7.63

C=C1CC[C@@]2(O)[C@H]3Cc4ccc(O)c5c4[C@@]2(CCN3CC2CC2)[C@H]1O5 [Nalmefene HCl]
Solubility in water ([7]; pH 2.25): 128 mg/mL
Solubility in water ([7]; pH 5.71): 131 mg/mL
Solubility in water ([7]; pH 6.115): 133 mg/mL
Solubility in water ([7]; pH 6.25): 124 mg/mL
Solubility in water ([7]; pH 7.85): 1.09 mg/mL
Solubility in water ([7]; pH 8.5): 0.180 mg/mL
Solubility in water ([7]; pH 9.15): 0.090 mg/mL
Solubility in water ([7]; pH 10.4): 0.230 mg/mL
solubility ([8]; pH 6.5, from diagram of log solubility of Table 5 vs pH): 112 mg/mL
solubility ([8]; pH 7.0, from diagram of log solubility of Table 5 vs pH): 88.6 mg/mL
solubility ([8]; pH 7.5, from diagram of log solubility of Table 5 vs pH): 31.9 mg/mL
solubility ([8]; pH 8.0, from diagram of log solubility of Table 5 vs pH): 0.44 mg/mL
